# Biological target: T1, Jak3 enzyme (aa 811-1103) (Homo sapiens, UniProt P52333)
# T1 construct: Jak3 enzyme (aa 811-1103); expressed in SF9 cells as a GST fusion; GST; made in house; host or cells: SF9 insect cells
# Test: In vitro Jak3 kinase activity measured by time-resolved fluorescence resonance energy transfer (trFRET)
# Type: biochemical
# Details: ATP 0.001 mM
# Procedure: In Vitro Jak3 Kinase Activity Measured by Time-Resolved Fluorescence Resonance Energy Transfer (trFRET)
# Varying concentrations of inhibitor were added to an assay well containing: Jak3 enzyme (aa 811-1103; expressed in SF9 cells as a GST fusion and purified by glutathione affinity chromatography; 3 nM), peptide substrate (biotin-TYR2, Sequence: Biotin-(Ahx)-AEEEYFFLFA-amide; 2 μM), MOPSO pH 6.5 (50 mM), MgCl2 (10 mM), MnCl2 (2 mM), DTT (2.5 mM), BSA (0.01% w/v), Na3VO4 (0.1 mM) and ATP (0.001 mM). After about 60 min incubation at rt, the reaction was quenched by addition of EDTA (final concentration: 100 mM) and developed by addition of revelation reagents (final approximate concentrations: 30 mM HEPES pH 7.0, 0.06% BSA, 0.006% Tween-20, 0.24 M KF, 80 ng/mL PT66K (europium labeled anti-phosphotyrosine antibody cat #61T66KLB Cisbio, Bedford, Mass.) and 0.8 μg/mL SAXL (Phycolink streptavidin-allophycocyanin acceptor, cat #PJ52S, Prozyme, San Leandro, Calif.). The developed reaction was incubated in the dark either at about 4° C., for about 14 h or for about 60 min at rt, then read via a time-resolved fluorescence detector (Rubystar, BMG) using a 337 nm laser for excitation and emission wavelength of 665 nm. Within the linear range of the assay, the observed signal at 665 nm is directly related to phosphorylated product and used to calculate the IC50 values.
# T1 sequence (P52333 811-1103): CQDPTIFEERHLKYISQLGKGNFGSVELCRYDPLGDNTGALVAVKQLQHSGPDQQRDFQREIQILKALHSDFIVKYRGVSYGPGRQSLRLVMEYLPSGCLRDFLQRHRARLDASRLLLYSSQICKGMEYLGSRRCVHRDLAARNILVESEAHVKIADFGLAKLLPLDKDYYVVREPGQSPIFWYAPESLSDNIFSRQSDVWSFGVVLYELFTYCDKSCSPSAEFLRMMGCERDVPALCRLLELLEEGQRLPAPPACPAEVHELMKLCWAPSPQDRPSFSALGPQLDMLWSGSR
row,IC50,Molecule
1,> 10 µM,"1-((1R,3S,4R)-3-(3H-imidazo[1,2-a]pyrrolo[2,3-e]pyrazin-8-yl)-4-methylcyclopentyl)methyl)azetidine-3-carbonitrile and 1-(((1S,3S,4R)-3-(3H-imidazo[1,2-a]pyrrolo[2,3-e]pyrazin-8-yl)-4-methylcyclopentyl)methyl)azetidine-3-carbonitrile [Example #7]"
2,1 to 10 µM,"C[C@@H]1CN(C(=O)NCC(F)F)C[C@@H]1c1cnc2cnc3[nH]ccc3n12 [Example 09, (3R,4S)—N-(2,2-difluoroethyl)-3-(3H-imidazo[1,2-a]pyrrolo[2,3-e]pyrazin-8-yl)-4-methylpyrrolidine-1-carboxamide]"
3,> 10 µM,"Cc1cnc(C(=O)N[C@H]2C[C@@H](C)[C@@H](c3cnc4cnc5[nH]ccc5n34)C2)cn1 [Example #1, N-((1S,3S,4R)-3-(3H-imidazo[1,2-a]pyrrolo[2,3-e]pyrazin-8-yl)-4-methylcyclopentyl)-5-methylpyrazine-2-carboxamide]"
4,1 to 10 µM,"C[C@@H]1C[C@H](N(C)C(=O)c2cocn2)C[C@@H]1c1cnc2cnc3[nH]ccc3n12 [Example #3, N-((1S,3S,4R)-3-(3H-imidazo[1,2-a]pyrrolo[2,3-e]pyrazin-8-yl)-4-methylcyclopentyl)-N-methyloxazole-4-carboxamide]"
5,> 10 µM,"C[C@@H]1C[C@H](NCc2cnc(C(F)(F)F)nc2)C[C@@H]1c1cnc2cnc3[nH]ccc3n12 [Example #4, (1S,3S,4R)-3-(3H-imidazo[1,2-a]pyrrolo[2,3-e]pyrazin-8-yl)-4-methyl-N-((2-(trifluoromethyl)pyrimidin-5-yl)methyl)cyclopentylamine]"
6,> 10 µM,"CC[C@@H]1C[C@@H](C(=O)NCC(F)(F)F)C[C@@H]1c1nnc2cnc3[nH]ccc3n12 [Example #6, (1R,3R,4S)-3-ethyl-4-(6H-pyrrolo[2,3-e][1,2,4]triazolo[4,3-a]pyrazin-1-yl)-N-(2,2,2-trifluoroethyl)cyclopentanecarboxamide]"
7,1 to 10 µM,"C[C@@H]1C[C@@H](CCC#N)C[C@@H]1c1nnc2cnc3[nH]ccc3n12 [Example #10, 3-((1R,3R,4S)-3-methyl-4-(6H-pyrrolo[2,3-e][1,2,4]triazolo[4,3-a]pyrazin-1-yl)cyclopentyl)propanenitrile]"
8,1 to 10 µM,"CC[C@@H]1CN(C(=O)CCC(F)(F)F)C[C@@H]1c1cnc2cnc3[nH]ccc3n12 [Example #15, 1-((3S,4R)-3-ethyl-4-(3H-imidazo[1,2-a]pyrrolo[2,3-e]pyrazin-8-yl)pyrrolidin-1-yl)-4,4,4-trifluorobutan-1-one]"
9,> 10 µM,"CC[C@@H]1CN(C(=O)NC2CCC2)C[C@@H]1c1cnc2cnc3[nH]ccc3n12 [Example #17, (3S,4R)—N-cyclobutyl-3-ethyl-4-(3H-imidazo[1,2-a]pyrrolo[2,3-e]pyrazin-8-yl)pyrrolidine-1-carboxamide]"
10,> 10 µM,"C[C@@H]1CN(C(=O)NCC(F)(F)F)C[C@@H]1c1cnc2cnc3[nH]ccc3n12 [Example #18, (3S,4R)-3-methyl-4-(3H-imidazo[1,2-a]pyrrolo[2,3-e]pyrazin-8-yl)-N-(2,2,2-trifluoroethyl)pyrrolidine-1-carboxamide]"
11,1 to 10 µM,"CC[C@@H]1C[C@H](CCC#N)C[C@@H]1c1nnc2cnc3[nH]ccc3n12 [Example #22, 3-((1S,3R,4S)-3-ethyl-4-(6H-pyrrolo[2,3-e][1,2,4]triazolo[4,3-a]pyrazin-1-yl)cyclopentyl)propanenitrile]"
12,1 to 10 µM,"CC[C@@H]1C[C@@H](CCC#N)C[C@@H]1c1nnc2cnc3[nH]ccc3n12 [Example #23, 3-((1R,3R,4S)-3-ethyl-4-(6H-pyrrolo[2,3-e][1,2,4]triazolo[4,3-a]pyrazin-1-yl)cyclopentyl)propanenitrile]"

# Further lines, the molecule ahead of its results:
row,Molecule,IC50
1,"C[C@@H]1C[C@H](NC(=O)c2cccnn2)C[C@@H]1c1cnc2cnc3[nH]ccc3n12 [Example #2, N-((1S,3S,4R)-3-(3H-imidazo[1,2-a]pyrrolo[2,3-e]pyrazin-8-yl)-4-methylcyclopentyl)pyridazine-3-carboxamide]",> 10 µM
2,"C[C@@H]1C[C@H](N2CCC(C#N)CC2)C[C@@H]1c1cnc2cnc3[nH]ccc3n12 [Example #5, 1-((1S,3S,4R)-3-(3H-imidazo[1,2-a]pyrrolo[2,3-e]pyrazin-8-yl)-4-methylcyclopentyl)piperidine-4-carbonitrile]",> 10 µM
3,"C[C@@H]1C[C@@H](N2CCC(C#N)CC2)C[C@@H]1c1cnc2cnc3[nH]ccc3n12 [Example #8, 1-((1R,3S,4R)-3-(3H-imidazo[1,2-a]pyrrolo[2,3-e]pyrazin-8-yl)-4-methylcyclopentyl)piperidine-4-carbonitrile]",> 10 µM
4,"C[C@@H]1C[C@H](CCC#N)C[C@@H]1c1nnc2cnc3[nH]ccc3n12 [Example #9, 3-((1S,3R,4S)-3-methyl-4-(6H-pyrrolo[2,3-e][1,2,4]triazolo[4,3-a]pyrazin-1-yl)cyclopentyl)propanenitrile]",> 10 µM
5,"C[C@@H]1C[C@@H](CCC#N)C[C@@H]1n1nnc2cnc3[nH]ccc3c21 [Example #11, 3-((1R,3R,4S)-3-methyl-4-(pyrrolo[2,3-b][1,2,3]triazolo[4,5-d]pyridin-1(6H)-yl)cyclopentyl)propanenitrile]",1 to 10 µM
6,CC[C@@H]1CN(C(=O)CCCC#N)C[C@@H]1c1cnc2cnc3[nH]ccc3n12 [Example #12],1 to 10 µM
7,"CC[C@@H]1CN(C(=O)NCCF)C[C@@H]1c1cnc2cnc3[nH]ccc3n12 [Example #13, (3S,4R)-3-ethyl-N-(2-fluoroethyl)-4-(3H-imidazo[1,2-a]pyrrolo[2,3-e]pyrazin-8-yl)pyrrolidine-1-carboxamide]",1 to 10 µM
8,"CC[C@@H]1CN(C(=O)NCC(F)F)C[C@@H]1c1cnc2cnc3[nH]ccc3n12 [Example #14, (3S,4R)—N-(2,2-difluoroethyl)-3-ethyl-4-(3H-imidazo[1,2-a]pyrrolo[2,3-e]pyrazin-8-yl)pyrrolidine-1-carboxamide]",1 to 10 µM
9,"CC[C@@H]1CN(C(=O)NCC(C)(F)F)C[C@@H]1c1cnc2cnc3[nH]ccc3n12 [Example #16, (3S,4R)—N-(2,2-difluoropropyl)-3-ethyl-4-(3H-imidazo[1,2-a]pyrrolo[2,3-e]pyrazin-8-yl)pyrrolidine-1-carboxamide]",> 10 µM
10,"C[C@@H]1CN(C(=O)N2CCOCC2)C[C@@H]1c1cnc2cnc3[nH]ccc3n12 [Example #20, ((3R,4S)-3-(3H-imidazo[1,2-a]pyrrolo[2,3-e]pyrazin-8-yl)-4-methylpyrrolidin-1-yl)(morpholino)methanone]",> 10 µM
11,"C[C@@H]1CN(C(=O)CC2CC2)C[C@@H]1c1cnc2cnc3[nH]ccc3n12 [Example #21, 1-((3R,4S)-3-(3H-imidazo[1,2-a]pyrrolo[2,3-e]pyrazin-8-yl)-4-methylpyrrolidin-1-yl)-2-cyclopropylethanone]",1 to 10 µM
12,"CC[C@@H]1C[C@H](NC(=O)c2coc(C)n2)C[C@@H]1c1nnc2cnc3[nH]ccc3n12 [Example #24, N-((1S,3R,4S)-3-ethyl-4-(6H-pyrrolo[2,3-e][1,2,4]triazolo[4,3-a]pyrazin-1-yl)cyclopentyl)-2-methyloxazole-4-carboxamide]",1 to 10 µM

# Same assay, conditions: ATP 0.001 mM, Table B
row,IC50,Molecule
1,1 to 10 µM,"CC[C@@H]1C[C@H](NC(=O)/C=C/c2ccc(C)o2)C[C@@H]1c1nnc2cnc3[nH]ccc3n12 [compound 25, (E)-N-((1S,3R,4S)-3-ethyl-4-(6H-pyrrolo[2,3-e][1,2,4]triazolo[4,3-a]pyrazin-1-yl)cyclopentyl)-3-(5-methylfuran-2-yl)acrylamide]"
2,> 10 µM,"CC[C@@H]1C[C@H](NC(=O)COc2cc(C)on2)C[C@@H]1c1nnc2cnc3[nH]ccc3n12 [compound 26, N-((1S,3R,4S)-3-ethyl-4-(6H-pyrrolo[2,3-e][1,2,4]triazolo[4,3-a]pyrazin-1-yl)cyclopentyl)-2-(5-methylisoxazol-3-yloxy)acetamide]"
3,> 10 µM,"CC[C@@H]1C[C@H](NC(=O)CN(C)C(=O)c2ccco2)C[C@@H]1c1nnc2cnc3[nH]ccc3n12 [compound 27, N-(2-((1S,3R,4S)-3-ethyl-4-(6H-pyrrolo[2,3-e][1,2,4]triazolo[4,3-a]pyrazin-1-yl)cyclopentylamino)-2-oxoethyl)-N-methylfuran-2-carboxamide]"
4,1 to 10 µM,"CC[C@@H]1C[C@H](NC(=O)CCC2NC(=O)NC2=O)C[C@@H]1c1nnc2cnc3[nH]ccc3n12 (stereo partly drawn) [compound 28, 3-(2,5-dioxoimidazolidin-4-yl)-N-((1S,3R,4S)-3-ethyl-4-(6H-pyrrolo[2,3-e][1,2,4]triazolo[4,3-a]pyrazin-1-yl)cyclopentyl)propanamide]"
5,1 to 10 µM,"CC[C@@H]1C[C@H](NC(=O)c2noc3c2CC(C)CC3)C[C@@H]1c1nnc2cnc3[nH]ccc3n12 (stereo partly drawn) [compound 29, N-((1S,3R,4S)-3-ethyl-4-(6H-pyrrolo[2,3-e][1,2,4]triazolo[4,3-a]pyrazin-1-yl)cyclopentyl)-5-methyl-4,5,6,7-tetrahydrobenzo[d]isoxazole-3-carboxamide]"
